Test results taken from ChEMBL document CHEMBL5325454, “Synthesis, anti-ferroptosis, anti-quorum sensing, antibacterial and DNA interaction studies of chromene-hydrazone derivatives” (Bioorg Med Chem, 2023).
≈ marks a conversion by molar mass, not a printed value. Calls of active or inactive are those of the source. No cut-off for these calls is given here.

What was measured:
Calf thymus DNA [1] = assay: Binding affinity to calf thymus DNA assessed as apparent binding constant upto 30 uM by UV-Vis spectroscopic analysis; format: nucleic-acid assay; details: Bos taurus
Escherichia coli = assay: Antibacterial activity against Escherichia coli assessed as inhibition of bacterial growth; format: functional, organism-based
DNA [2] = assay: Induction of Escherichia coli supercoiled pBR322 DNA cleavage in absence of Cu2+ ion incubated overnight by GelRed DNA gel staining based electrophoresis analysis; format: nucleic-acid assay
DNA [3] = assay: Induction of Escherichia coli supercoiled pBR322 DNA cleavage assessed as cleavage of DNA into open-circular forms in presence of Copper(II)acetate incubated overnight by GelRed DNA gel staining based electrophoresis analysis; format: nucleic-acid assay
[4] = Inhibition of quorum sensing system in Vibrio harveyi BB120 assessed as reduction in luminescence incubated for 5 hrs under shaking condition by luminescence microplate reader analysis
Vibrio harveyi [5] = assay: Antibacterial activity against Vibrio harveyi BB120 assessed as inhibition of bacterial growth measured at 24 hrs by broth microdilution assay; format: functional
Staphylococcus aureus [6] = assay: Antibacterial activity against methicillin-resistant Staphylococcus aureus MW2 assessed as inhibition of bacterial growth measured at 24 hrs by broth microdilution assay; format: functional
HaCaT [7] = assay: Anti-ferroptotic activity against Erastin-induced ferroptosis in human HaCaT cells assessed as increase in cell viability at 5 uM preincubated with compound for 4 hrs followed by […] administration and measured after 24 hrs by MTT assay relative to control; format: functional; details: time 28 hrs
Staphylococcus aureus [8] = assay: Antibacterial activity against methicillin-resistant Staphylococcus aureus MW2 assessed as zone of inhibition incubated overnight by disc diffusion assay; format: functional
Calf thymus DNA [9] = assay: Binding affinity to calf thymus DNA assessed as hyperchromicity by UV-Vis spectroscopic analysis; format: nucleic-acid assay; details: Bos taurus; dose <= 30.0 µM
Vibrio harveyi [10] = assay: Antibacterial activity against Vibrio harveyi BB120 assessed as inhibition of bacterial growth at 1 to 1024 ug/ml measured at 24 hrs by broth microdilution assay; format: functional, organism-based; details: dose 1-1024 µg/ml
Vibrio harveyi [11] = assay: Antibacterial activity against Vibrio harveyi BB120 assessed as inhibition of bacterial growth upto 250 uM measured at 24 hrs by broth microdilution assay; format: functional, organism-based
HaCaT [12] = assay: Anti-ferroptotic activity against Erastin-induced ferroptosis in human HaCaT cells assessed as increase in cell viability at 5 uM preincubated with compound for 4 hrs followed by […] administration and measured after 24 hrs by MTT assay; format: functional, cell-based; details: time 28.0 hrs
HaCaT [13] = assay: Anti-ferroptotic activity against Erastin-induced ferroptosis in human HaCaT cells assessed as cell viability at 5 uM preincubated with compound for 4 hrs followed by […] administration and measured after 24 hrs by MTT assay relative to control; format: functional; details: time 28 hrs

SMILES | Activity (DNA [2]) | Activity (DNA [3]) | inhibition [4] | MIC (Vibrio harveyi [5]) | Activity (HaCaT [7]) | also measured
CC1(C)C=Cc2c(ccc(/C=N/NC(=O)c3ccc(O)cc3O)c2O)O1 | inactive | Active | inactive | 10 µM (≈ 3.54 µg/mL) | 34% | Kapp (Calf thymus DNA [1]): 5.73 10^3/M; Activity (Escherichia coli): inactive; MIC (Staphylococcus aureus [6]): 64 µg/mL (≈ 181 µM); inhibition zone (IZ) (Staphylococcus aureus [8]): 11 mm; Activity (Calf thymus DNA [9]): Dose-Dependent Effect
COc1ccc(C(=O)N/N=C/c2ccc3c(c2O)C=CC(C)(C)O3)cc1 | inactive | Active | inactive | – | 44% | Activity (Vibrio harveyi [10]): inactive
CC1(C)C=Cc2c(ccc(/C=N/NC(=O)c3cccnc3)c2O)O1 | inactive | Active | inactive | 10 µM (≈ 3.23 µg/mL) | 34% | –
CC1(C)C=Cc2c(ccc(/C=N/NS(=O)(=O)c3ccc(C(F)(F)F)cc3)c2O)O1 | inactive | Active | – | – | – | Kapp (Calf thymus DNA [1]): 6.02 10^3/M; Activity (Vibrio harveyi [11]): inactive; IC50 [4]: > 250 µM; Activity (HaCaT [12]): inactive; Activity (Calf thymus DNA [9]): Dose-Dependent Effect
CC1(C)C=Cc2c(ccc(/C=N/NC(=O)c3ccncc3)c2O)O1 | inactive | Active | inactive | 15.6 µM (≈ 5.04 µg/mL) | 34% | –
Cc1ccc(S(=O)(=O)N/N=C/c2ccc3c(c2O)C=CC(C)(C)O3)cc1 | inactive | Active | – | – | – | Activity (Vibrio harveyi [11]): inactive; IC50 [4]: > 250 µM; Activity (HaCaT [12]): inactive
CC1(C)C=Cc2c(ccc(/C=N/NC(=O)c3ccc(Br)cc3)c2O)O1 | inactive | Active | inactive | – | 44% | Activity (Vibrio harveyi [10]): inactive
CC1(C)C=Cc2c(ccc(/C=N/NC(=O)c3ccc(C(C)(C)C)cc3)c2O)O1 | inactive | Active | inactive | – | 44% | Activity (Vibrio harveyi [10]): inactive
O=c1c(O)c(-c2ccc(O)c(O)c2)oc2cc(O)ccc12 [FISETIN] | – | – | – | – | 42% | –
CC1(C)C=Cc2c(ccc(/C=N/NS(=O)(=O)c3ccccc3)c2O)O1 | inactive | Active | – | – | – | Activity (Vibrio harveyi [11]): inactive; IC50 [4]: 22 µM
CC1(C)C=Cc2c(ccc(/C=N/NC(N)=O)c2O)O1 | inactive | Active | – | – | – | Kapp (Calf thymus DNA [1]): 9.55 10^3/M; Activity (HaCaT [13]): 18%; Activity (Vibrio harveyi [11]): inactive; IC50 [4]: 27 µM; Activity (Calf thymus DNA [9]): Dose-Dependent Effect
CC1(C)C=Cc2c(ccc(/C=N/NC(=O)c3ccc(O)cc3)c2O)O1 | inactive | Active | inactive | 3.9 µM (≈ 1.32 µg/mL) | 44% | –
Cc1cc(C(=O)N/N=C/c2ccc3c(c2O)C=CC(C)(C)O3)ccc1[N+](=O)[O-] | inactive | Active | inactive | 62.5 µM (≈ 23.8 µg/mL) | 34% | –
CC1(C)C=Cc2c(ccc(/C=N/NC(=O)c3ccc([N+](=O)[O-])cc3)c2O)O1 | inactive | Active | inactive | – | 34% | Activity (Vibrio harveyi [10]): inactive
CC1(C)C=Cc2c(ccc(/C=N/NC(=O)c3ccccc3)c2O)O1 | inactive | Active | inactive | 7.8 µM (≈ 2.51 µg/mL) | 44% | –
Cc1ccc(C(=O)N/N=C/c2ccc3c(c2O)C=CC(C)(C)O3)cc1 | inactive | Active | inactive | > 250 µM | 44% | –
CC1(C)C=Cc2c(ccc(/C=N/NC(N)=S)c2O)O1 | inactive | Active | inactive | 125 µM (≈ 34.7 µg/mL) | 54% | –
CC(=O)N/N=C/c1ccc2c(c1O)C=CC(C)(C)O2 | inactive | Active | inactive | 40 µM (≈ 10.4 µg/mL) | – | Activity (HaCaT [12]): Active
CC1(C)C=Cc2c(ccc(/C=N/NC(=O)c3ccc(Cl)cc3)c2O)O1 | inactive | Active | inactive | > 250 µM | 44% | –
CC1(C)C=Cc2c(ccc(/C=N/NC(=O)c3ccccn3)c2O)O1 | inactive | Active | inactive | – | 34% | Activity (Vibrio harveyi [10]): inactive
